Test results reported in patent US20230035491A1, “METHODS, KITS AND COMPOSITIONS FOR REDUCING CARDIOTOXICITY ASSOCIATED WITH CANCER THERAPIES” (Baruch S. Blumberg Institute, priority 2019, published 2023).
Structures can show the parent of a compound that is named as a salt.

How the values were obtained:
iPSC-CM = assay: CellTiter-Glo luminescent cell viability assay, iPSC-derived cardiomyocytes; format: cell-based; details: 5 μM Dox plus 50 μM compound vs Dox alone
[1] = test system: breast cancer cell lines (BCa); assay: CellTiter-Glo luminescent cell viability assay, breast cancer cell lines; format: cell-based; details: 5 μM Dox plus 50 μM compound vs Dox alone
[2] = test system: Isolated canine cardiac myocytes; assay: DOX-induced apoptosis of isolated canine cardiac myocytes; format: cell-based; details: 24 hours
[3] = test system: breast cancer cell line Py8119; assay: Py8119 cell proliferation by cell number using methylene blue; format: cell-based; details: Ranolazine 0.156 um to 20 um, alone or with 5 uM Dox
Experimental: The breast cancer cell line Py8119 was treated with either increasing doses of Ranolazine (0.156 um to 20 um) or with the addition of doxorubicin. (5 uM Dox). Cell proliferation was established by cell number using methylene blue.

[4] = test system: CCR5, CCL3/MIP-la, CCL5/RANTES; details: chronic or acute DOX regimen vs saline; cited from earlier work
[5] = Chronic DOX model, cardiac function by echocardiography; format: in vivo; details: female mice, DOX 8×3 mg/kg over 2 weeks; 6 and 8 weeks after first injections; vs saline
Experimental: Female mice (n=10) were treated with a chronic regimen of DOX (8×3 mg/kg over 2 weeks) and cardiac function assessed by echocardiography at 6 and 8 weeks after the first injections. Echocardiographic imaging was employed using the Vevo 2100 preclinical high-frequency ultrasound system (Visualsonics, Toronto, Canada). M-mode analysis of the resulting images provided indices of cardiac systolic and diastolic function. For FIG. 5a, the ejection fraction is the percentage of the left ventricular volume expelled with each cardiac contraction. For FIG. 5b, the ESD is the […]. For FIG. 5c, the ESV is the end systolic volume or the volume of the heart at the end of contraction (systole). For FIG. 5d, the PWs is the posterior wall thickness at end of systole or the thickness of the myocardium at maximal ventricular contraction. All data are compared to the saline treated group and represent mean+/−SEM, p<0.01.

[6] = test system: CCR5 ligands CCL3, CCL5, CCL4; details: doxorubicin treated patients (n=7) vs donor controls (n=9); cited from earlier work
[7] = test system: BCa cells (SUM-159, FC-IBC-02, MDA-MB-231); assay: CCR5 expression in BCa cells grown in doxorubicin, flow cytometry; format: cell-based; details: 10-40 nmol/L doxorubicin for up to 80 days vs untreated
Experimental: BCa cells were grown in vitro under standard conditions for control (“solid bar”) or DOX treatment (“non-solid bar”) for up to 80 days. SUM-159 cells were grown in 10 nmol/L doxorubicin for 1 month, then 20 nmol/L doxorubicin for 1 month, and then 40 nmol/L doxorubicin for 3 weeks, prior to analysis. FC-IBC-02 cells were grown in 40 nmol/L doxorubicin for 1 month prior to analysis. MDA-MB-231 cells were grown in 20 nmol/L doxorubicin for 1 month then 40 nmol/L doxorubicin for 3 weeks prior to analysis. At the conclusion of the 80 days, surviving cells were harvested and pelleted by centrifugation. Cells were suspended in PBS containing normal mouse IgG and rat anti-mouse Fcg III/II receptor antibody to block nonspecific binding. Cells were exposed allophycocyanin (APC)-labeled CCR5 antibody for 1 hour at 4° C. After washing, analysis of CCR5 expression on cell was conducted on FACSCalibur flow cytometer (BD Biosciences). The data was analyzed with FlowJo software (Tree Star, Inc.). […] Data are % cells expressing CCR5 (mean of n=3 determinations).

miRNAs targeting CCR5 = assay: miRNA expression profiles of hearts after acute doxorubicin regimen (Illumina miRNA arrays); format: in vivo, rats; details: acute doxorubicin 1x 20 mg/kg IP, n=6, vs saline
Description: In silico analysis using the miRdb database (www.mirdb.org) identified a number of miRNAs that could potentially regulate translation of CCR5 in rats (see X-axis for identification of individual miRNAs). […] Data rare represented as fold change to saline treated rats and shown as mean+/−SEM, * p<0.01.

CCR5, CCL3, CCL5 = test system: CCR5, CCL3, CCL5; set-up: species or system human
Experimental: FIGS. 4a through 4f show myocardial biopsies from patients with either doxorubicin-induced cardiomyopathy or donor control heart. […] Samples were obtained from the Sydney heart bank. Biopsies were obtained at the time of transplant for the doxorubicin affected hearts. […] Heart biopsies were fixed in paraformaldehyde overnight prior to being embedded in paraffin blocks. Blocks were sectioned at […]. After deparaffinization and rehydration, antigen retrieval was performed in Tris buffer (pH 9) on the resulting sections. After blocking, sections were incubated with an antibody against CCR5, CCL3, or CCL5. Anti-CCR5 antibody binding was visualized using an HRP-conjugated second antibody and NOVA red substrate. Haematoxylin was used for nuclear visualization.

cardiac progenitor iPSCs [8] = assay: DOX killing and CCR5 expression in cardiac progenitor iPSCs, propidium iodide / flow cytometry; format: cell-based
Experimental: Some cells were suspended in PBS containing normal mouse IgG and rat anti-mouse Fcg III/II receptor antibody. Cells were exposed allophycocyanin (APC)-labeled CCR5 antibody for 1 hour at 4° C. After washing, analysis of CCR5 expression on cell was conducted on FACSCalibur flow cytometer (BD Biosciences). The data was analyzed with FlowJo software (Tree Star, Inc.). […] As such, CCR5+ cardiac progenitor cells are more prone to DOX induced cell death from than their CCR5− counterparts.

CCR5 = CCR5 immunostaining of myocardium after chronic regimen of DOX; format: in vivo, mice; details: DOX 8×3 mg/kg IP, excised after 8 weeks; vs saline
Experimental: Mice were treated with a chronic regimen of DOX (8×3 mg/kg, IP, n=12) or saline (n=10), excised after 8 weeks and fixed in paraformaldehyde overnight before being embedded in paraffin blocks. Blocks were sectioned (5 μm) and, after deparaffinization and rehydration, antigen retrieval was performed in Tris buffer (pH 9). After blocking, sections were incubated with an antibody against CCR5. Anti-CCR5 antibody binding was visualized using an HRP-conjugated second antibody and Nova red substitute. Haematoxylin was used for nuclear visualization.

[9] = Survival of doxorubicin treated mice over 90 days; format: in vivo
Description: Survival was documented over the first 90 days after the beginning of treatment.

[10] = Doxorubicin induced cardiac dysfunction, echocardiography 8 weeks after final dose; format: in vivo, mice; details: doxorubicin 8×3 mg/kg over 2 weeks with maraviroc 16 mg/kg twice daily gavage vs vehicle; n=15 per group
Description: A representative example of the echocardiogram is shown. […] Indices include Left Ventricular End Systolic Dimension (LVESD) and Volume (LVESV), which are the diameter and volume of the left ventricle at the end of systole respectively, ejection fraction (EF) which is the percentage of the left ventricular volume expelled with each cardiac contraction (%), and fractional shortening (FS) which is the proportion of diastolic dimension lost in systole (%).

SUM-159 cells = assay: BCa lung metastasis after intracardiac injection of SUM-159 Luc2-eGFP cells, bioluminescence imaging; format: in vivo, NOD/SCID mice; details: Maraviroc 8 mg/kg every 12 hr oral gavage vs vehicle; n=6
Experimental: SUM-159 cells expressing Luc2-eGFP were introduced by intracardiac injection into 8-week old female NOD/SCID mice at 2×10^5 cells/mouse). […] Bioluminescence imaging was performed after intraperitoneal (i.p.) injection with 200 μL of D-luciferin at 30 mg/ml.

MDA-MB-231 BCa cells = details: Veliparib plus maraviroc vs vehicle, 72 hours, n=3
Experimental: After 24 hours, cells were harvested and pelleted by centrifugation. For cell death, cells were incubated with RNase A and propidium iodide to highlight DNA content and nuclear morphology. Cell death was identified by counting cells with nuclei that were smaller and with less DNA content compared to normal diploid cells. […] (mean+/−SD, n=3). […] MDA-MB-231 BCa cells were plated onto 96-well plates, allowed to adhere overnight, then treated with drug for 72 hours. Cells were incubated with DNA damaging agent (Veliparib) and either vehicle or maraviroc. A measurement of cell number was made at both the time of treatment (time 0) and after drug treatment (time 72) using CTG reagent (Promega, Madison, Wis.) to allow for calculation of percent growth inhibition and the dose required to inhibit growth rate by 50% (GR50). […] Data represents mean+/−SD (n=3).

cardiac progenitor iPSCs [11] = assay: Cell death of cardiac precursor iPSCs with saline or DOX and maraviroc, propidium iodide; format: cell-based; details: 1 μM DOX plus maraviroc (0-100 m), 24 hours, n=3
Description: (mean+/−SD, n=3). […] Data represents mean+/−SD (n=3).

[12] = anthracycline cardiotoxicity myocardium (n=2) vs normal donor heart (n=2)

COc1ccccc1OCC(O)CN1CCN(CC(=O)Nc2c(C)cccc2C)CC1 (centres unmarked) [Ranolazine dihydrochloride]
survival of iPSC-CM (iPSC-CM): improved survival | survival of BCa cells [1]: reduced survival | DOX-induced cardiac toxicity (levels of apoptosis) ([2]; pretreated with ranolazine dihydrochloride 50 μM, then DOX 2 μM, n=3): reduces DOX-induced cardiac toxicity

COc1ccccc1OCC(O)CN1CCN(CC(=O)Nc2c(C)cccc2C)CC1 (centres unmarked) [Ranolazine]
breast cancer cell killing (cell proliferation) [3]: enhance breast cancer cell killing in a dose dependent manner

COc1cccc2c1C(=O)c1c(O)c3c(c(O)c1C2=O)C[C@@](O)(C(=O)CO)C[C@@H]3O[C@H]1C[C@H](N)[C@H](O)[C@H](C)O1 [doxorubicin]
CCL3 mRNA expression in the heart [4]: increased mRNA expression | CCL5 mRNA expression in the heart [4]: increased mRNA expression | cardiac function (ejection fraction, ESD, ESV, PWs) [5]: induction of stable mild heart failure | CCL3 mRNA expression in the heart [6]: increased mRNA expression | CCL5 mRNA expression in the heart [6]: increased mRNA expression | CCR5 expression (% cells expressing CCR5) [7]: significantly increased | miRNAs targeting CCR5 with decreased expression in the myocardium (miRNAs targeting CCR5): 8/11 | Average ejection fraction (EF) (CCR5, CCL3, CCL5): 25-35% | CCL3 expression in myocardium (CCR5, CCL3, CCL5; [12]): increased | CCL5 expression in myocardium (CCR5, CCL3, CCL5; [12]): increased | CCR5 expression in myocardium (CCR5, CCL3, CCL5; [12]): increased | cell death (cardiac progenitor iPSCs [8]; DOX 0-10 m, 24 hours, n=5): promotes cell death in a dose dependent manner | CCR5 expression (cardiac progenitor iPSCs [8]; DOX 24 hours, n=3): increases CCR5 expression | CCR5 expression in the myocardium (CCR5): increased | survival over first 90 days ([9]; doxorubicin 8x 3 mg/kg over 2 weeks with vehicle control): 7/15 | proportion of DOX-induced apoptotic cell death ([2]; DOX 10 μM, no pretreatment): 17%

maraviroc
doxorubicin induced cardiac dysfunction (LVESD, LVESV, EF, FS) [10]: prevents doxorubicin induced cardiac dysfunction | BCa lung metastasis (SUM-159 cells): reduced | BCa cell killing in combination with veliparib (MDA-MB-231 BCa cells): synergistically promotes BCa cell killing | DOX induced cell death (cardiac progenitor iPSCs [11]): significantly, and dose dependently, rescues DOX induced cell death | survival of iPSC-CM (iPSC-CM): improved survival | survival of BCa cells [1]: reduced survival | survival over first 90 days ([9]; doxorubicin 8x 3 mg/kg over 2 weeks with maraviroc 16 mg/kg twice daily gavage): 10/15 | enhanced survival over the vehicle in DOX treated mice ([9]; doxorubicin with maraviroc vs doxorubicin with vehicle): 2.77 fold | proportion of DOX-induced apoptotic cell death ([2]; pretreated with maraviroc 100 μM, then DOX 10 μM): 3%
